Source: US7371734B2, “Oligonucleotide compositions and their use for the modulation of immune responses” (Bioniche Life Sciences Inc., priority 2002, dated 2008)
Marks after values point to notes of the source that are not given here.

Key:
Assay type in all cases: cell-based
[1] = tested on: Human dendritic cells; experiment: Increase in cell size and granularity of DC (flow cytometry); details: 100 μg polynucleotide, 48 hours
Description: (§1) Human dendritic cells were obtained from Clonetics (San Diego, Calif., USA) and were cultured in the medium recommended by Clonetics. DC were obtained from three different individuals (see Table 1). Major histocompatability typing was performed on each of these individuals and several of the HLA (human leukocyte antigens) types are shown.
DC were seeded in 1.0 ml at 1.0×10^5 cells/ml in 6-well flat-bottomed tissue culture plates for 48 hours with 100 μg of 6 base N1A, N1B, N2A, N2B, N3A, N3B, N4A, N4B, N5A, N5B, N6A, N6B, N7A or N7B polynucleotides. Cell size (FCS: forward side scatter) and granularity (S SC: side light scatter) were determined by flow cytometry using a FACSCalibur and analyzed using the CELLQuest Pro software (both from Becton-Dickinson, San Diego, Calif., USA). Percentage of DC showing a FCS>500 units and a SSC>400 units have been determined after treatment with 3-OH, 5-OH polynucleotides for DC isolated from three different individuals.

[2] = tested on: Human dendritic cells; experiment: Induction of IL-1beta production by DC (ELISA); details: 100 μg, 48 hours
Description: as §1
DC were seeded in 1.0 ml at 1.0×10^5 cells/ml in 6-well flat-bottomed tissue culture plates for 48 hours with 100 μg of 6 base N1A, N1B, N2A, N2B, N3A, N3B, N4A, N4B, N5A, N5B, N6A, N6B, N7A or N7B polynucleotides. Production of IL-1beta was determined in 100 μl of culture supernatant using a commercial ELISA (BioSource, Camarillo, Calif., USA) after 48 hours of incubation. Results are expressed as the “fold” (x) increase in IL-1beta production by treated DC compared to control cells.

[3] = tested on: Human dendritic cells; experiment: Induction of IL-12 production by DC (ELISA); details: 100 μg, 48 hours
Description: as §1
DC were seeded in 1.0 ml at 1.0×10^5 cells/ml in 6-well flat-bottomed tissue culture plates for 48 hours with 100 μg of 6 base N1A, N1B, N2A, N2B, N3A, N3B, N4A, N4B, N5A, N5B, N6A, N6B, N7A or N7B polynucleotides. Production of IL-12 was determined in 100 μl of culture supernatant using a commercial ELISA (BioSource) after 48 hours of incubation. Results are expressed as the “fold” (x) increase in IL-12 production by treated DC compared to control cells.

[4] = tested on: Human dendritic cells; experiment: Induction of IFN-gamma production by DC (ELISA); details: 100 μg, 48 hours
Description: as §1
DC were seeded in 1.0 ml at 1.0×10^5 cells/ml in 6-well flat-bottomed tissue culture plates for 48 hours with 100 μg of6 base N1A, N1B, N2A, N2B, N3A, N3B, N4A, N4B, N5A, N5B, N6A, N6B, N7A or N7B polynucleotides. Production of IFN-gamma was determined in 100 μl of culture supernatant using a commercial ELISA (BioSource) after 48 hours of incubation. Results are expressed as the “fold” (x) increase in IFN-gamma production by treated DC compared to control cells.

[5] = tested on: Human dendritic cells; experiment: Induction of IL-12 by sequences plus GM-CSF (ELISA); details: 100 μg, 48 hours
Description: as §1
DC from the individual B were seeded in 1.0 ml at 1.0×10^5 cells/ml in 6-well flat-bottomed tissue culture plates for 48 hours with 500 units of human recombinant GM-CSF (Clonetics) and 100 μg of 6 base polynucleotide N1A or polynucleotide N7A. Production of IL-12 was determined in 100 μl of culture supernatant using a commercial ELISA (BioSource) after 48 hours of incubation. Results are expressed as the “fold” (x) increase in IL-12 production by treated DC compared to control cells in absence or presence of recombinant GM-CSF.

[6] = tested on: Human dendritic cells; experiment: CD40 levels at the DC cell surface (flow cytometry); details: 100 μg, 48 hours
Description: as §1
DC from individuals B and C were seeded in 1.0 ml at 1.0×10^5 cells/ml in 6-well flat-bottomed tissue culture plates for 48 hours with 100 μg of 6 base N1A, N1B, N2A, N2B, N3A, N3B, N4A, N4B, N5A, N5B, N6A, N6B, N7A or N7B polynucleotides. The level of CD40 at the cell surface was determined after 48 hours of incubation by flow cytometry (FACSCalibur system) using a FITC-conjugated monoclonal antibody directed to CD40 and analyzed by CELLQuest Pro (all from Becton Dickinson). Results are expressed as the percentage of CD40^hi DC following treatment. The term “CD40^hi” refers to a population of cells identified by flow cytometry as having higher than baseline expression of CD40.

[7] = tested on: Human dendritic cells; experiment: CD80 levels at the DC cell surface (flow cytometry); details: 100 μg, 48 hours
Description: as §1
(§2) DC from individuals B and C were seeded in 1.0 ml at 1.0×10^5 cells/ml in 6-well flat-bottomed tissue culture plates for 48 hours with 100 μg of 6 base N1A, N1B, N2A, N2B, N3A, N3B, N4A, N4B, N5A, N5B, N6A, N6B, N7A or N7B polynucleotides. The level of CD80 at the cell surface was determined after 48 hours of incubation by flow cytometry using a FITC-conjugated monoclonal antibody directed to CD80 (Serotec, Oxford, U.K.) and analyzed by CELLQuest. Results are expressed as the percentage of CD80^hi DC following treatment.

[8] = tested on: Human dendritic cells; experiment: CD86 levels at the DC cell surface (flow cytometry); details: 100 μg, 48 hours
Description: as §1
as §2, with “CD86” for “CD80”, “PE-conjugated” for “FITC-conjugated”, “CD86 (Serotec)” for “CD80 (Serotec, Oxford, U.K.)”, “CELLQuest Pro.” for “CELLQuest.”, “CD86^hi” for “CD80^hi”

[9] = tested on: Human dendritic cells; experiment: MHC-II levels at the DC cell surface (flow cytometry); details: DC from individual B; 100 μg, 48 hours
Description: as §1
DC from individual B were seeded in 1.0 ml at 1.0×10^5 cells/ml in 6-well flat-bottomed tissue culture plates for 48 hours with 100 μg of 6 base N1A, N1B, N2A, N2B, N3A, N3B, N5A, N5B, N6A, N6B, N7A or N7B polynucleotides. The level of MHC II at the cell surface was determined after 48 hours of incubation by flow cytometry using a FITC-conjugated monoclonal antibody directed to MHC II (Serotec) and analyzed by CELLQuest Pro. Results are expressed as the percentage of MHC II^hi DC following treatment.

[10] = tested on: Human dendritic cells; experiment: Endocytosis of FITC-dextran by DC; details: DC from individual B, 100 μg, 24 hours, untreated control = 100
Description: as §1
DC from individual B were seeded in 1.0 ml at 1.0×10^5 cells/ml in 6-well flat-bottomed tissue culture plates for 24 hours with 1 mg/ml of FITC-dextran (20 kDa; Sigma-Aldrich) in the absence or presence of 100 μg of 6 base N2A, N2B, N3A, N3B, N5A, N5B, and N6B polynucleotides at 4° C. (control cell surface binding of FITC-dextran) and 37° C. (to assess endocytosis). Cells were washed three times with ice-cold phosphate buffered saline and analyzed by flow cytometry using CELLQuest Pro. Results are expressed as relative endocytic rate (normalized Δ Mean Fluorescence Value (Δ MFV)). Δ MFV=MFV of DC exposed to FITC-dextran at 37° C.−MFV of DC exposed to FITC-dextran at 4° C. Δ MFV=(ΔMFVsequence/ΔMFVcontrol)×100.

Substance	Percentage of DC showing a FCS > 500 units and a SSC > 400 units ([1]; DC isolated from individual A)	Percentage of DC showing a FCS > 500 units and a SSC > 400 units ([1]; DC isolated from individual C)	IL-1beta production by DC (fold increase compared to untreated DC) ([2]; DC isolated from individual A)	IL-1beta production by DC (fold increase compared to untreated DC) ([2]; DC isolated from individual C)	IL-12 production by DC (fold increase compared to untreated DC) ([3]; DC isolated from individual A)	IL-12 production by DC (fold increase compared to untreated DC) ([3]; DC isolated from individual C)	IFN-gamma production by DC (fold increase compared to untreated DC) ([4]; DC isolated from individual A)	IFN-gamma production by DC (fold increase compared to untreated DC) ([4]; DC isolated from individual C)	The percentage of CD40^hi DC following treatment ([6]; DC from individual C)	The percentage of CD80^hi DC following treatment ([7]; DC from individual B)	The percentage of CD80^hi DC following treatment ([7]; DC from individual C)	The percentage of CD86^hi DC following treatment ([8]; DC from individual C)	The percentage of MHC-II^hi DC following treatment [9]	Percentage of DC showing a FCS > 500 units and a SSC > 400 units ([1]; DC isolated from individual B)	IL-1beta production by DC (fold increase compared to untreated DC) ([2]; DC isolated from individual B)	IL-12 production by DC (fold increase compared to untreated DC) ([3]; DC isolated from individual B)	IFN-gamma production by DC (fold increase compared to untreated DC) ([4]; DC isolated from individual B)	The percentage of CD40^hi DC following treatment ([6]; DC from individual B)	The percentage of CD86^hi DC following treatment ([8]; DC from individual B)	Relative endocytic rate (normalized Δ MFV) [10]	further results
5′GGGCGG3′ [N7A] (DNA, all phosphodiester, methylation of C not given here)	8%	30%	1.1 fold	1.0 fold	1.0 fold	0.9 fold	1.0 fold	1.0 fold	23%	23** %	22** %	34%	21%	–	–	–	–	–	–	–	IL-12 production by DC from the individual B (fold increase compared to untreated DC) ([5]; +GM-CSF (500 units human recombinant)): 11.7 fold; IL-12 production by DC from the individual B (fold increase compared to untreated DC) ([5]; w/o GM-CSF): 9.6 fold
5′GGGGGG3′ [N5B]	53%	23%	5.0 fold	3.7 fold	7.5 fold	15.0 fold	3.5 fold	1.5 fold	15%	3%	10%	31** %	18%	16%	7.5 fold	17.8 fold	5.0 fold	21%	26** %	151	–
5′GGTGGG3′ [N2A]	6%	21%	1.0 fold	1.0 fold	7.9 fold	1.6 fold	1.0 fold	1.0 fold	17%	25** %	18%	26%	42** %	14%	1.0 fold	6.8 fold	1.1 fold	27** %	16%	334	–
5′GGTGGG3′ [N2B]	42%	50%	1.2 fold	1.0 fold	1.3 fold	2.5 fold	1.2 fold	1.0 fold	37** %	7%	8%	53** %	30%	38%	1.4 fold	6.0 fold	1.2 fold	22%	31** %	148	–
